Laboratory results taken from US10407408B2, “Imide derivatives and use thereof as medicine” (MITSUBISHI TANABE PHARMA CORPORATION, priority 2015, dated 2019).
Counter-ions that a name gives are not always drawn.

Tested on: proMMP-9 production by human TNFα stimulated THP-1 cell
Assay: Action on proMMP-9 production by human TNFα stimulated THP-1 cell (ELISA of culture supernatant)
Type: cell-based
Conditions: THP-1 cells, human TNFα 10 ng/mL, 24 hr; IC50 from 3 concentrations (5, 50, 500 or 1, 10, 100 nmol/L); read-out: proMMP-9 suppression rate IC50
Procedure: Experimental Example 1: Action of Human TNFα Stimulated THP-1 Cell on proMMP-9 Production
THP-1 cell (human monocytic leukemia cell line) was adjusted to 1×10^7 cells/mL in a culture medium (10% fetal bovine serum/RPMI1640 medium), and dispensed to a 96 well multiplate. This was equilibrated under the conditions of 37° C./5% CO2, and a culture medium containing human TNFα (final concentration 10 ng/mL) and a test compound was dissolved therein. After incubation under the conditions of 37° C./5% CO2 for 24 hr, the culture medium was centrifuged and the culture supernatant was collected, which was subjected to the following measurement.
Quantification of proMMP-9 in Culture Supernatant
The proMMP-9 concentration of the collected culture supernatant was quantified using a commercially available measurement reagent (manufactured by GE Healthcare, MMP-9, Human, Biotrak ELISA System).
Calculation of proMMP-9 Suppression Rate
The proMMP-9 suppression rate of the test compound was calculated from the following formula: % suppression=100−((Test−Min)/(Max−Min)×100) wherein Max is proMMP-9 concentration of culture supernatant induced by stimulation with human TNFα, without addition of a test compound (added with solvent alone) Min is proMMP-9 concentration of culture supernatant without addition of a test compound (added with solvent alone) and without stimulation with human TNFα, and Test is proMMP-9 concentration of culture supernatant induced by stimulation with human TNFα when a test compound is added.
Furthermore, the concentration of the test compound necessary for suppressing proMMP-9 production by human TNFα stimulated THP-1 cell by 50% (IC50 value) was calculated from 3 points of proMMP-9 suppression rate at test compound concentrations of 5, 50 and 500 nmol/L or 1, 10 and 100 nmol/L.
MMP-9 is produced as a precursor proMMP-9 by the stimulated cells, extracellularly activated and expresses the physiological activity as MMP-9. That is, evaluation of the suppression of proMMP-9 produced by the cell means evaluation of the suppression of production of MMP-9. The same applies to MMP-2, and evaluation of the suppression of proMMP-2 produced by the cell means evaluation of the suppression of production of MMP-2.

Compound	IC50 [nM]
CC[C@]1(c2ccc(C(=O)N3CCC(c4nnn(-c5ccc(C)cc5)n4)CC3)cc2)NC(=O)NC1=O [Example 170, (R)-5-ethyl-5-{4-[4-(2-p-tolyl-2H-tetrazol-5-yl)piperidine-1-carbonyl]phenyl}imidazolidine-2,4-dione]	60
Cc1cc(C)c(N2CCN(C(=O)c3ccc(C4(c5ccccc5)NC(=O)NC4=O)cc3)CC2)nc1C (stereo not shown) [Example 108, 5-phenyl-5-{4-[4-(3,5,6-trimethylpyridin-2-yl)piperazine-1-carbonyl]phenyl}imidazolidine-2,4-dione]	11
COCC1(c2ccc(C(=O)N3CCC(c4coc5cc(C)cc(C)c45)CC3)cn2)CC(=O)NC1=O (stereo not shown) [Example 343, 3-{5-[4-(4,6-dimethyl-benzofuran-3-yl)piperidine-1-carbonyl]pyridin-2-yl}-3-methoxymethyl-pyrrolidine-2,5-dione]	< 3
Cc1cc(C2CC2)cnc1N1CCN(C(=O)c2ccc(C3(C4CCC4)NC(=O)NC3=O)cc2)CC1 (stereo not shown) [Example 322, 5-cyclobutyl-5-{4-[4-(5-cyclopropyl-3-methylpyridin-2-yl)piperazine-1-carbonyl]phenyl}imidazolidine-2,4-dione]	< 1
Cc1cnc(N[C@H]2C[C@@H](C#N)N(C(=O)c3ccc([C@@]4(C(C)C)NC(=O)NC4=O)cc3)C2)c(C)c1 [Example 198, (2S,4S)-4-(3,5-dimethylpyridin-2-ylamino)-1-[4-((R)-4-isopropyl-2,5-dioxoimidazolidin-4-yl)benzoyl]pyrrolidine-2-carbonitrile]	2
CC(C)[C@]1(c2ccc(C(=O)N3CCC(c4ncc(-c5ccccc5)s4)CC3)cc2)NC(=O)NC1=O [Example 259, (R)-5-isopropyl-5-{4-[4-(5-phenylthiazol-2-yl)piperidine-1-carbonyl]phenyl}imidazolidine-2,4-dione]	60
Cc1cnc(N2CCN(C(=O)c3ccc(C4(CF)NC(=O)NC4=O)cc3)C(C)(C)C2)c(C)c1 (stereo not shown) [Example 69, 5-{4-[4-(3,5-dimethylpyridin-2-yl)-2,2-dimethylpiperazine-1-carbonyl]phenyl}-5-fluoromethylimidazolidine-2,4-dione]	11
Cc1cnc(N2CCN(C(=O)c3ccc(C4(C(C)C)NC(=O)NC4=O)c(O)c3)CC2)c(C)c1 (stereo not shown) [Example 20, 5-{4-[4-(3,5-dimethylpyridin-2-yl)piperazine-1-carbonyl]-2-hydroxyphenyl}-5-isopropylimidazolidine-2,4-dione]	6
Cc1cnc2c(c1)CCN2[C@H]1CCN(C(=O)c2ccc([C@@]3(C(C)C)NC(=O)NC3=O)cc2)C1 [Example 158, (R)-5-isopropyl-5-{4-[(S)-3-(5-methyl-2,3-dihydropyrrolo[2,3-b]pyridin-1-yl)pyrrolidine-1-carbonyl]phenyl}imidazolidine-2,4-dione]	49
CCC1(c2ccc(C(=O)N3CCC(c4cc(-c5ccc(C)cc5)[nH]n4)CC3)cn2)CC(=O)NC1=O (stereo not shown) [Example 165, 3-ethyl-3-{5-[4-(5-p-tolyl-1H-pyrazol-3-yl)piperidine-1-carbonyl}pyridin-2-yl}pyrrolidine-2,5-dione]	90
Cc1cc(F)c2c(C3CCN(C(=O)c4ccc([C@@]5(C)NC(=O)NC5=O)cc4)CC3)n[nH]c2c1 [Example 280, (R)-5-{4-[4-(4-fluoro-6-methyl-1H-indazol-3-yl)piperidine-1-carbonyl]phenyl}-5-methylimidazolidine-2,4-dione]	< 5
Cc1cnc(N[C@@H]2CN(C(=O)c3ccc([C@@]4(C(C)C)NC(=O)NC4=O)cc3)C[C@H]2O)c(C)c1 [Example 187, (R)-5-{4-[(3R,4R)-3-(3,5-dimethylpyridin-2-ylamino)-4-hydroxypyrrolidine-1-carbonyl]phenyl}-5-isopropylimidazolidine-2,4-dione]	19
CC(C)[C@]1(c2ccc(C(=O)N3CCC(c4nnc(-c5ccccc5)s4)CC3)cc2)NC(=O)NC1=O [Example 227, (R)-5-isopropyl-5-{4-[4-(5-phenyl[1,3,4]thiadiazol-2-yl)piperidine-1-carbonyl]phenyl}imidazolidine-2,4-dione]	84
Cc1cnc(N2CCN(C(=O)c3ccc(C4(C(C)C)NC(=O)NC4=O)s3)CC2)c(C)c1 (stereo not shown) [Example 114, 5-{5-[4-(3,5-dimethylpyridin-2-yl)piperazine-1-carbonyl]thiophen-2-yl}-5-isopropylimidazolidine-2,4-dione]	82
Cc1cnc(N2CCN(C(=O)c3ccc(C4(C(C)(C)C)NC(=O)NC4=O)cn3)CC2)c(C)c1 (stereo not shown) [Example 335, 5-tert-butyl-5-{6-[4-(3,5-dimethylpyridin-2-yl)piperazine-1-carbonyl]pyridin-3-yl}imidazolidine-2,4-dione]	1
Cc1cnc(N2CCN(C(=O)c3ccc([C@@]4(C(C)C)NC(=O)NC4=O)cc3)C3(CCC3)C2)c(C)c1 [Example 65, (R)-5-{4-[8-(3,5-dimethylpyridin-2-yl)-5,8-diazaspiro[3.5]nonane-5-carbonyl]phenyl}-5-isopropylimidazolidine-2,4-dione]	9
Cc1ccc2nc(C3CCN(C(=O)c4ccc([C@@]5(C)NC(=O)NC5=O)cc4)CC3)oc2c1 [Example 267, (R)-5-methyl-5-{4-[4-(6-methylbenzoxazol-2-yl)piperidine-1-carbonyl]phenyl}imidazolidine-2,4-dione]	5
Cc1ccc(C(=O)C2CCN(C(=O)c3ccc([C@@]4(C)NC(=O)NC4=O)cc3)CC2)cc1 [Example 150, (R)-5-methyl-5-{4-[4-(4-methylbenzoyl)piperidine-1-carbonyl]phenyl}imidazolidine-2,4-dione]	25
Cc1cnc(N2CCN(C(=O)c3ccc(C4(C(C)(C)C)NC(=O)NC4=O)cc3)CC2)c(C)n1 (stereo not shown) [Example 137, 5-tert-butyl-5-[4-(3′,5′-dimethyl-2,3,5,6-tetrahydro[1,2′]bipyrazinyl-4-carbonyl)phenyl]imidazolidine-2,4-dione]	14
Cc1ccc2nc(C3CCN(C(=O)c4ccc([C@@]5(C(C)C)NC(=O)NC5=O)cc4)CC3)sc2n1 [Example 222, (R)-5-isopropyl-5-{4-[4-(5-methylthiazolo[5,4-b]pyridin-2-yl)piperidine-1-carbonyl]phenyl}imidazolidine-2,4-dione]	76
CC(=O)OCN1C(=O)N[C@](C)(c2ccc(C(=O)N3CCC(n4cc5cc(C)cc(C)c5n4)CC3)cc2)C1=O [Example 350, acetic acid (R)-4-{4-[4-(5,7-dimethylindazol-2-yl)piperidine-1-carbonyl]phenyl]-4-methyl-2,5-dioxoimidazolidin-1-ylmethyl ester]	115
Cc1ccc(OC2CCN(C(=O)c3ccc([C@@]4(C)NC(=O)NC4=O)cc3)CC2)cc1 [Example 152, (R)-5-methyl-5-[4-(4-p-tolyloxypiperidine-1-carbonyl]phenyl}imidazolidine-2,4-dione]	14
Cc1ccc(-c2cnn(C3CCN(C(=O)c4ccc([C@@]5(C)NC(=O)NC5=O)cc4)CC3)c2)cc1 [Example 346, (R)-5-methyl-5-{4-[4-(4-p-toluylpyrazol-1-yl)piperidine-1-carbonyl]phenyl}imidazolidine-2,4-dione]	88
Cc1cnc2nc(C3CCN(C(=O)c4ccc([C@@]5(C(C)C)NC(=O)NC5=O)cc4)CC3)sc2c1 [Example 220, (R)-5-isopropyl-5-{4-[4-(6-methylthiazolo[4,5-b]pyridin-2-yl)piperidine-1-carbonyl]phenyl}imidazolidine-2,4-dione]	55
Cc1cnc(NC2CN(C(=O)c3ccc([C@@]4(C(C)C)NC(=O)NC4=O)cc3)C2)c(C)c1 [Example 185, (R)-5-{4-[3-(3,5-dimethylpyridin-2-ylamino)azetidine-1-carbonyl]phenyl}-5-isopropylimidazolidine-2,4-dione.hydrochloride]	82
COC1(C2(c3ccc(C(=O)N4CCN(c5ncc(C)cc5C)CC4)cc3)NC(=O)NC2=O)CC1 (stereo not shown) [Example 112, 5-{4-[4-(3,5-dimethylpyridin-2-yl)piperazine-1-carbonyl]phenyl}-5-(1-methoxycyclopropyl) imidazolidine-2,4-dione]	11
Cc1cc(C)c2c(cnn2C2CCN(C(=O)c3ccc([C@@]4(C(C)C)NC(=O)NC4=O)cc3)CC2)c1 [Example 272, (R)-5-{4-[4-(5,7-dimethylindazol-1-yl)piperidine-1-carbonyl]phenyl}-5-isopropylimidazolidine-2,4-dione]	< 5
Cc1ccc2nc(C3CCN(C(=O)c4ccc([C@@]5(C(C)C)NC(=O)NC5=O)cc4)CC3)oc2n1 [Example 221, (R)-5-isopropyl-5-{4-[4-(5-methyloxazolo[5,4-b]pyridin-2-yl)piperidine-1-carbonyl]phenyl}imidazolidine-2,4-dione]	72
